Measurements taken from US5968920A, “Compounds having a benzisoselen-azoline and -azine structure, method for preparing same and therapeutic uses thereof” (Oxis Isle of Man, Limited, priority 1994, dated 1999).

How the values were obtained:
endothelial cells [1] = test: Absence of toxicity in a culture of endothelial cells in vitro (MTT); assay type: cell-based, human; settings: no more than 10 μM, 24 or 48 hours
Description: Human endothelial cells were cultivated under the same conditions as those described for Example 18, in 96-hole plates.
When the cells were near confluence, they were incubated or not (control) for 24 or 48 hours in the presence of BXT-51056 or BXT-51072 incorporated into the culture medium at a concentration of no more than 10 μM. After 24 or 48 hours, the cells were rinsed three times with a PBS buffer and the viability of the cells was measured using the bromide of 3-(4,5-dimethylthiazol-2-yl)-2,5-diphenyl-2H-tetrazolium (MTT).

endothelial cells [2] = test: Protection of endothelial cells against hydrogen peroxide (NO production after bradykinin); assay type: cell-based; settings: Homo sapiens, Endothelial cell; compound 1 μM; hydrogen peroxide 100 μM; bradykinin 100 nM; read-out: recovery of the normal response to bradykinin (NO production)
Description: Human endothelial cells were cultivated at 37° C. in 6-hole plates or Petri dishes (35 mm diameter) in an atmosphere of saturated humidity constituted by a gaseous mixture of 95% air and 5% of CO2. The culture medium was constituted by a M 199 medium, pH=7.4, containing 20% of foetal calf serum, 2 mM of L-glutamine, 100 U/ml of penicillin and 100 μg/ml of streptomycin.
When the cells were confluent, they were incubated in the presence or absence (control) of a compound with general structure I in culture medium at a concentration of between 1 and 10 μM, all other conditions being the same. After washing the cells three successive times with a PBS buffer, they were incubated in the presence or absence (control) of hydrogen peroxide, 500 or 100 μM, in the reaction medium. The cells were then washed three times with PBS buffer. They were then stained using the May-Grunwald/Giemsa procedure which caused the nucleus to stain purple and the cytoplasm, light violet, or they were used to measure their ability to produce nitric oxide NO. (EDRF). The production of NO. by endothelial cells was made using a NO. electrode, after stimulation with bradykinin, 100 nM, using the procedure described by H. Tsukahara et al., (Biochem. and Biophys. Res. Comm., (1993), 193, pp 722-729).
Treatment with 100 μM hydrogen peroxide had no significant effect on cellular density. […]

[3] = prior art, Wendel 1984; Mercurio and Combs 1986; cited from earlier work
interleukin 8 (IL-8) = test: Endothelial production of interleukin 8 induced by TNF-α; assay type: cell-based, human; settings: 4 h
Description: (§1) Human endothelial cells were cultivated under the same conditions as those described for Example 18.
When the cells were near confluence, they were incubated for one hour in the presence or absence of the following compounds: BXT-51072, BXT-51077 or ebselen. Each of these compounds was incorporated into culture medium containing 2% of foetal calf serum at 10 μM, all other conditions being the same. […] After four hours of incubation, the interleukin 8 (IL-8) in the culture medium was measured.

[4] = in the presence of excess glutathione GSH; cited from earlier work
[5] = Glutathione peroxidase activity, hydrogen peroxide; assay type: biochemical; settings: compound 20 μM, pH = 7.3, 37° C., [GSH] = 2 mM
Description: (§2) To 1.5 ml of HEPES buffer, 50 mM, pH=7.3, containing 0.2 mM of DTPA, 0.144 mM of NADPH, 2.2 mM of reduced glutathione and 1.1 U/ml of glutathione disulfide reductase, pre-equilibrated for 2 minutes at 37° C., 100 μl of an ethanolic mother solution of the compound to be tested or 100 μl of absolute ethanol (blank) was added. Each compound was tested at a final concentration of 20 μM.
(§3) Subsequently, 50 μl of the following was added:
or hydrogen peroxide (H2 O2), 1.6 mM in ultrapure water;
(§4) or the hydroperoxide of linoleic acid (18:2-OOH) prepared using soya lipoxygenase (see M. O. Funk et al., Lipids, (1976), 11, pp 113-117), 3.3 mM in a water/methanol mixture, 85/15 (V/V). The glutathione peroxidase activity was measured at 37° C. by measuring the reduction in absorbance at 340 nm over 5 minutes. The initial enzymatic rate or activity was proportional to the slope of the plot of absorbance against time.
(§5) They are expressed in nmoles of hydroperoxide reduced per minute.

[6] = Glutathione peroxidase activity, t-BuOOH as hydroperoxide; assay type: biochemical; settings: compound 20 μM, pH = 7.3, 37° C., [GSH] = 2 mM
Description: as §2, §3
tertiobutyl hydroperoxide (t-BuOOH), 6.6 mM in ultrapure water;
as §4, §5

endothelial cells [7] = test: Adhesion of PMN to endothelial cells induced by TNF-α (myeloperoxidase); assay type: cell-based, human; settings: compound 10 μM vs pentoxifylline 50 μM; TNF-α 1 ng/ml
Description: as §1
(§6) When the cells were near confluence, they were incubated for one hour in the presence or absence of the following compounds: BXT-51072, BXT-51077 or pentoxifylline. Compounds BXT-51072 and BXT-51077, each at 10 μM, and the pentoxifylline, at 50 μM, were incorporated in culture medium containing 2% of foetal calf serum, all other conditions being the same. […] Myeloperoxidase (MPO), an enzyme specifically contained in PMNs, was then measured in the cell lysates obtained to evaluate adhesion of the PMNs on the endothelial cells. The von Willebrandt factor (vWf) liberated in the culture medium by the endothelial cells was measured after three and a half hours of incubation, as a label of the changes in the cells.
(§7) Incubation of the endothelial cells in the presence of PMN and TNF-α led to a very significant increase in the quantity of MPO and vWf with respect to the respective controls (PMN alone, and endothelial cells alone respectively), meaning the adhesion of activated PMNs to the endothelial cells and changes in the latter.
(§8) They are expressed as the percentage inhibition by referring the MPO and vWf measurements to the respective concentrations of MPO and vWf determined when the endothelial cells were incubated with TNF-α and PMNs.

endothelial cells [8] = test: Viability of endothelial cells subjected to linoleic acid hydroperoxide (MTT); assay type: cell-based, human; settings: compound 4 μM, 1 h; 18:2-OOH 50 μM, 2 h; MTT after about twenty hours
Description: Human endothelial cells were cultivated at 37° C. in multi-hole plates or Petri dishes in an atmosphere of saturated humidity constituted by a gaseous mixture of 95% air and 5% of CO2. The culture medium was constituted by a M 199 medium, pH=7.4, containing 20% of foetal calf serum, 2 mM of L-glutamine, 100 U/ml of penicillin, 100 μg/ml of streptomycin and 1% by volume of a medium supplement containing heparin and a cell growth factor.
When the cells were near confluence, they were incubated for one hour in the presence or absence of one of the following compounds: BXT-51056, BXT-51072, BXT-51077, or ebelsen. Each of these compounds was incorporated at 4 μM into culture medium containing 2% of foetal calf serum, all other conditions being the same.
After washing the cells three successive times with a PBS buffer, they were incubated in the presence or absence (control) of linoleic acid hydroperoxide (18:2-OOH), 50 μM, in the culture medium defined above. […] After about twenty hours, the viability of the cells was determined by measurement using the bromide of 3-(4,5-dimethylthiazol-2-yl)-2,5-diphenyl-2H-tetrazolium (MTT).
The results are shown in FIG. 1, expressed as the survival percentage with respect to the control and where the reference is shown by the black rectangle.

endothelial cells [9] = test: Endothelial changes induced by PMN and TNF-α (von Willebrandt factor release); assay type: cell-based, human; settings: BXT compounds 10 μM, pentoxifylline 50 μM; TNF-α 1 ng/ml; 3.5 h
Description: as §1, §6, §7, §8

[10] = test system: von Willebrandt factor (vWf); test: Protection of endothelial cells against interleukin 1 (von Willebrandt factor release); assay type: cell-based; settings: Homo sapiens, Endothelial cell, 4 h, read-out: inhibition of increase in vWf liberation induced by IL-1
Description: as §1
When the cells were near confluence, they were incubated for one hour in the presence or absence of the following compounds: BXT-51072, BXT-51077, each of these compounds being at 10 μM in culture medium containing 2% of foetal calf serum , all other conditions being the same. The cells were then washed three times with a PBS buffer. The cells which had not been pretreated by a compound were incubated in the presence or absence (control) of interleukin 1α (IL-1α), at 50 U/ml, in the same culture medium. […] After four hours of incubation, the von Willebrandt factor (vWf) in the culture medium was measured.

[11] = Glutathione peroxidase activity, linoleic acid hydroperoxide; assay type: biochemical; settings: compound 20 μM, pH = 7.3, 37° C., [GSH] = 2 mM
Description: as §2, §3, §4, §5

## CC1(C)N[Se]c2ccccc21 [BXT-51056, 3,3-dimethyl-benzisoselenazoline]
Endothelial cells [1]
  toxicity to endothelial cells: not toxic to endothelial cells
Endothelial cells [2]
  activity at 1 µM: > 80%

## O=c1c2ccccc2[se]n1-c1ccccc1 [ebselen, 2-phenyl-3-one-benzisoselenazoline(2H)]
[3]
  toxic effect: do not appear to have a major toxic effect
Interleukin 8 (IL-8); compound 10 μM, TNF-α 0.1, 1 or 10 ng/ml
  inhibition of IL-8 production induced by TNF-α (in words): no inhibiting effect
[4]
  water solubility of the derivative produced with excess glutathione GSH: only very slightly soluble in water

## CC1(C)N[Se]c2ccc([N+](=O)[O-])cc21 [BXT-51075, 3,3'-dimethyl-5-nitro-benzisoselenazoline]
[5]
  Glutathione peroxidase activity, H2 O2: 5,9 nmoles of hydroperoxide reduced/min
[6]
  Glutathione peroxidase activity, t--BuOOH: 3,2 nmoles of hydroperoxide reduced/min

## COc1ccc2c(c1)C(C)(C)CN[Se]2 [BXT-51077, 4,4-dimethyl-6-methoxy-benzisoselenazine]
Endothelial cells [7]
  inhibition of the adhesion of PMN induced by TNF-α (MPO): inhibit the adhesion of PMN induced by TNF-α, much more effectively than pentoxifylline
Endothelial cells [8]
  protection of the cells from death induced by 18:2-OOH: significantly protected the cells from death
Endothelial cells [9]
  protection of endothelial cells against the deleterious effects of activated PMNs (vWf): protect endothelial cells against the deleterious effects of activated PMNs
Interleukin 8 (IL-8); Homo sapiens, read-out: inhibition of IL-8 production induced by TNF-α
  inhibition at 10 µM: ≥ 70%
[10]
  inhibition at 10 µM: > 70%
[6]
  Glutathione peroxidase activity, t--BuOOH: 35.4 nmoles of hydroperoxide reduced/min

## CCN1CC(C)(C)c2ccccc2[Se]1 [BXT-51078, 4,4-dimethyl-2-ethyl-benzisoselenazine]
[6]
  Glutathione peroxidase activity, t--BuOOH: 16.5 nmoles of hydroperoxide reduced/min

## CC1(C)N[Se](=O)c2ccccc21 (centres unmarked) [BXT-51059]
[11]
  Glutathione peroxidase activity, 18:2-OOH: 0.8 nmoles of hydroperoxide reduced/min
[5]
  Glutathione peroxidase activity, H2 O2: 0.1 nmoles of hydroperoxide reduced/min
[6]
  Glutathione peroxidase activity, t--BuOOH: 0.2 nmoles of hydroperoxide reduced/min
